Assay results taken from patent US6498254B1, “Antiretroviral compounds and compositions” (Uniroyal Chemical Company, Inc., priority 2001, dated 2002).
≈ marks a conversion by molar mass, not a printed value. Read-outs that look alike come from different tables or passages of the source.

How the values were obtained:
HIV-1 (IIIB) = assay: Inhibition of HIV-1 syncytium formation in CEM cells; type: cell-based; conditions: for HIV-1 % Protection: protection of CEM cells against virus-induced cytopathicity at the compound concentration in the previous column; for EC50: read-out: EC50 (μg/ml) HIV-1
Text: (§1) The cell type used to determine activity of the compounds of the invention herein, i.e., the test compounds, against HIV was human T-lymphoblast (CEM) cells obtained from the American Tissue Cell Culture Collection (Rockville, Md.). HIV-1 (IIIB) was originally obtained from the culture of persistently HIV-1 infected H9 cells and was provided by R. C. Gallo and M. Popovic (National Cancer Institute, National Institutes of Health, Bethesda, Md.). HIV-2 (ROD) was originally obtained from L. M. Montagnier (Pasteur Institute, Paris, France).
(§2) To determine the antiviral activity of the test compounds, CEM cells were suspended at a cell density of approximately 300,000 cells per ml of culture medium and infected with approximately 100 CClD50 (100 CClD50 being the 50% cell culture infective dose) of HIV-1 (IIIB) or HIV-2 (ROD)). Then 100 μl of the infected cell suspensions was added to 200 μl micro titer plate wells containing 100 μl of appropriate serial (5-fold) dilutions of the test compounds. The inhibitory effect of the test compounds on HIV-1 or HIV-2 syncytium formation in CEM cells was examined microscopically on day four post infection. The 50% effective concentration (EC50) was defined as the test compound concentration that inhibits syncytium formation in the HIV-1 or HIV-2 infected cell cultures by 50%.
(§3) In some cases, the compounds had considerable cytotoxicity to CEM cells which made determination of the EC50 difficult. In these cases, the percent protection of the cells against virus-induced cytopathicity by the test compounds at the indicated compound concentration in the previous column is given.

HIV-2 (ROD) = assay: Inhibition of HIV-2 syncytium formation in CEM cells; type: cell-based; conditions: for HIV-2 % Protection: protection of CEM cells against virus-induced cytopathicity at the compound concentration in the previous column; for EC50: Human immunodeficiency virus 2, CCRF-CEM, read-out: EC50 (μg/ml) HIV-2
Text: as §1, §2, §3

CMV Davis strain = assay: Activity against HCMV: virus-induced cytopathicity in HEL cells; type: cell-based, human cytomegalovirus (HCMV); conditions: for Antiviral % Inhibition Davis strain: estimate of percent protection of HEL cells at the compound concentration; for IC50: read-out: Antiviral IC50 (μg/ml) Davis strain
Experimental: Confluent HEL cells grown in […] microtiter plates were inoculated with CMV at an input of 100 PFU (plaque forming units) per well. After a one to two hour incubation period, residual virus was removed and the infected cells were further incubated with MEM (Minimal Essential Medium) (supplemented with 2% inactivated Fetal Calf Serum (FCS), […], and 0.3% sodium bicarbonate) containing varying concentrations of the test compounds. Antiviral activity was expressed as EC50 (50% effective concentration), or test compound concentration required to reduce virus-induced cytopathicity after seven days by 50% compared to the untreated control.
In some cases, the compounds had considerable cytotoxicity against HEL cells, which made determination of the EC50's difficult. In these cases, an estimate of the percent protection at the compound concentration indicated in the previous columns is given.

[1] = CMV-infected HEL cells, virus-induced cytopathicity after seven days
[2] = HIV-1 (IIIB) infected CEM cells, syncytium formation, day four post infection
[3] = HIV-2 (ROD) infected CEM cells, syncytium formation, day four post infection
[4] = Human immunodeficiency virus 1, CCRF-CEM, HIV-1 (IIIB) infected CEM cells, syncytium formation, day four post infection
[5] = Human betaherpesvirus 5, 168 h, CMV-infected HEL cells, virus-induced cytopathicity after seven days
[6] = Human immunodeficiency virus 1, IIIB, CCRF-CEM
[7] = Human betaherpesvirus 5, HEL, 168 h

Molecule	HIV-1 % Protection (HIV-1 (IIIB)) [%]	HIV-2 % Protection (HIV-2 (ROD)) [%]	Antiviral IC50 (μg/ml) Davis strain (CMV Davis strain; [1]) [µg/mL]	Antiviral % Inhibition Davis strain (CMV Davis strain) [%]	EC50 (μg/ml) HIV-1 (HIV-1 (IIIB); [2]) [µg/mL]	EC50 (μg/ml) HIV-2 (HIV-2 (ROD); [3]) [µg/mL]	EC50 (HIV-1 (IIIB); [4]) [µg/mL]	EC50 (HIV-2 (ROD); [3]) [µg/mL]	IC50 (CMV Davis strain; [5]) [µg/mL]	EC50 (HIV-1 (IIIB); [6]) [µg/mL]	EC50 (HIV-2 (ROD)) [µg/mL]	IC50 (CMV Davis strain; [7]) [µg/mL]
1,4-xylyl-bis-2-sulfonyl pyridine-N-oxide [Compound 23]	37.5	37.5	>20	20.0								
1,4[1,2,4,5-tetramethylbenzyl]-bis-(2′-sulfonylpyridine-N-oxide) [Compound 25]		37.5	16.0		10.00							
2-(2,5-dimethylphenyl)methylsulfinyl)pyridine [Compound 163]		0.0	>50	0.0	3.25	>100						
2-[(3-methoxy-4-benzyloxy)phenylmethylsulfonyl]pyridine-N-oxide [Compound 61]	0.0	6.0	14.0		>4	>4.0						
Cc1ccc(N)cc1C(C)S(=O)(=O)c1cccc[n+]1[O-] (centres unmarked) [Compound 1, 2-[[1-(5-amino-2-methylphenyl)ethyl]sulfonyl]pyridine-N-oxide]				0.0			20 (≈ 68.4 µM)	41 (≈ 140 µM)	> 50			
CCC(C)(C)c1ccc(CS(=O)(=O)c2cccc[n+]2[O-])cc1 [Compound 40, 2-(4′-tert-pentylphenylmethylsulfonyl)pyridine-N-oxide]							3.1 (≈ 9.7 µM)	3.4 (≈ 10.6 µM)	1.5 (≈ 4.7 µM)			
O=S(=O)(Cc1c2ccccc2cc2ccccc12)c1cccc[n+]1[O-] [Compound 51, 2[1-(9-anthryl)methylsulfonyl]pyridine-N-oxide]	0.0	0.0					> 0.8	> 0.8	1.3 (≈ 3.72 µM)			
Cc1ccc([N+](=O)[O-])c(CS(=O)(=O)c2cccc[n+]2[O-])c1 [Compound 62, 2-[[(2-nitro-5-methylphenyl)methyl]sulfonyl]pyridine-N-oxide]				20.0			1.9 (≈ 6.16 µM)	5 (≈ 16.2 µM)	> 5			
CC(C)c1cc(CS(=O)(=O)c2cccc[n+]2[O-])c(C(C)C)cc1Br [Compound 63, 2-[[[2,5-bis(1-methylethyl)-4-bromophenyl]methyl]sulfonyl]pyridine-N-oxide]							2.3 (≈ 5.58 µM)	2.5 (≈ 6.06 µM)	3.7 (≈ 8.97 µM)			
O=[N+]([O-])c1cc(CS(=O)(=O)c2cccc[n+]2[O-])cc([N+](=O)[O-])c1 [Compound 65, 2-[[(3,5-dinitrophenyl)methyl]sulfonyl]pyridine-N-oxide]							2.8 (≈ 8.25 µM)	3.5 (≈ 10.3 µM)	5 (≈ 14.7 µM)			
Cc1cc(CS(=O)(=O)c2cccc[n+]2[O-])ccc1[N+](=O)[O-] [Compound 66, 2-[[(3-methyl-4-nitrophenyl)methyl]sulfonyl]pyridine-N-oxide]							3.1 (≈ 10.1 µM)	2.5 (≈ 8.11 µM)	5 (≈ 16.2 µM)			
Cc1ccc(CS(=O)(=O)c2cccc[n+]2[O-])cc1[N+](=O)[O-] [Compound 67, 2-[[(3-nitro-4-methylphenyl)methyl]sulfonyl]pyridine-N-oxide]				20.0			2.3 (≈ 7.46 µM)	2.4 (≈ 7.78 µM)	> 50			
O=[N+]([O-])c1ccc(CS(=O)(=O)c2cccc[n+]2[O-])c(Cl)c1 [Compound 69, 2-[[(2-chloro-4-nitrophenyl)methyl]sulfonyl]pyridine-N-oxide]				20.0			2.9 (≈ 8.82 µM)	2.9 (≈ 8.82 µM)	> 5			
Cc1ccc(C)c(C(Cl)S(=O)(=O)c2cccc(C)[n+]2[O-])c1 (centres unmarked) [Compound 73, 2-[(2,5-dimethylphenyl)chloromethylsulfonyl]-6-methylpyridine-N-oxide]		0.0		40.0			2.8 (≈ 8.59 µM)	> 100	> 20			
Cc1ccc(C)c(CS(=O)(=O)c2cccc(Cl)[n+]2[O-])c1 [Compound 77, 2-(2,5-dimethylphenylmethylsulfonyl)-6-chloropyridine-N-oxide]		0.0					0.7 (≈ 2.25 µM)	> 0.8	11 (≈ 35.3 µM)			
CCc1cccc2c(C)cc(S(=O)(=O)C(C)c3ccccc3)nc12 (centres unmarked) [Compound 107, 8-ethyl-4-methyl-2-[(1-phenylethyl)sulfonyl]quinoline]				0.0			0.65 (≈ 1.91 µM)	> 100	> 20			
COCC(c1cc(C)ccc1C)S(=O)(=O)c1ccccn1 (centres unmarked) [Compound 123, 2-[[1-(2,5-dimethylphenyl)-2-methoxyethyl]sulfonyl]pyridine]		0.0		40.0			60 (≈ 196 µM)	> 100	> 50			
Cc1ccc(C)c(C(C)S(=O)(=O)c2c(Cl)ccc[n+]2[O-])c1 (centres unmarked) [Compound 124, 3-chloro-2-[[1-(2,5-dimethylphenyl)ethyl]sulfonyl]pyridine-N-oxide]	0.0	0.0		10.0			> 0.8	> 0.8	> 5			
Cc1ccc(C)c(C(Cl)S(=O)(=O)c2c(Cl)ccc[n+]2[O-])c1 (centres unmarked) [Compound 125, 3-chloro-2-[[chloro-(2,5-dimethylphenyl)methyl]sulfonyl]pyridine-N-oxide]	0.0	0.0					> 4	> 4	31.5 (≈ 91 µM)			
[O-][n+]1cccc(Cl)c1SCc1ccccc1 [Compound 132, 3-chloro-2-[(phenylmethyl)thio]pyridine-N-oxide]		0.0		0.0						2.4 (≈ 9.53 µM)	> 20	> 50
Cc1ccc(C)c(CSc2c(Cl)ccc[n+]2[O-])c1 [Compound 133, 3-chloro-2-[[(2,5-dimethylphenyl)methyl]thio]pyridine-N-oxide]		0.0								0.14 (≈ 0.5 µM)	> 20	25 (≈ 89.4 µM)
COc1ccc(CSc2cc(C(C)(C)C)cc[n+]2[O-])cc1 [Compound 134, 4-(1,1-dimethylethyl)-2-[(4-methoxyphenyl)methylthio]pyridine-N-oxide]	0.0	0.0					> 20	> 100	> 50			
[O-][n+]1cccc(Cl)c1[S+]([O-])Cc1ccccc1 (centres unmarked) [Compound 136, 3-chloro-2-[(phenylmethyl)sulfinyl]pyridine-N-oxide]		0.0					1.5 (≈ 5.6 µM)	> 4	4.7 (≈ 17.6 µM)			
Cc1ccc[n+]([O-])c1SCc1c(Cl)cccc1Cl [Compound 137, 2-[[(2,6-dichlorophenyl)methyl]thio]-3-methyl-pyridine-N-oxide]	0.0	0.0								> 20	> 20	28 (≈ 93.3 µM)
Cc1ccc[n+]([O-])c1[S+]([O-])Cc1c(Cl)cccc1Cl (centres unmarked) [Compound 138, 2-[[(2,6-dichlorophenyl)methyl]sulfinyl]-3-methyl-pyridine-N-oxide]	0.0	0.0		20.0			> 100	> 100	> 50			
Cc1ccc[n+]([O-])c1S(=O)(=O)Cc1c(Cl)cccc1Cl [Compound 139, 2-[[(2,6-dichlorophenyl)methyl]sulfonyl]-3-methyl-pyridine-N-oxide]	0.0	0.0					> 20	> 20	43 (≈ 129 µM)			
